pIC50: −log10 of the molar value. Starred links: 1 amine or outer side, 2 acyl side, 3 side chain; linkers in the order of their positions; H or OH if unused. Non-standard residues stand in square brackets, D forms with d. Residues, ends and D or L forms follow the SMILES beside them. dPro(4R-(4-pyridylmethyl)) = O=C(O)[C@H]1C[C@@H](Cc2ccncc2)CN1; Trp(βS-Me,4-F) = C[C@@H](c1c[nH]c2cccc(F)c12)[C@H](N)C(=O)O; Bip(4'-COOH) = N[C@@H](Cc1ccc(-c2ccc(C(=O)O)cc2)cc1)C(=O)O; Ala(1-bicyclo(1.1.1)pentyl) = N[C@@H](CC12CC(C1)C2)C(=O)O; X28 = CC(=O)N1CCN(c2ncc(C[C@H](N[*:1])C(=O)[*:2])cn2)CC1; X37 = CC(=O)N1CCN(c2ccc(C[C@H](N[*:1])C(=O)[*:2])cn2)CC1; dPro(4R-Bzl(4-F)) = O=C(O)[C@H]1C[C@@H](Cc2ccc(F)cc2)CN1; Ala(pyrimidin-5-yl) = N[C@@H](Cc1cncnc1)C(=O)O; Phe(4-COOH) = N[C@@H](Cc1ccc(C(=O)O)cc1)C(=O)O; Pro(cis-4-F) = O=C(O)[C@@H]1C[C@H](F)CN1; AEF = NCCOc1ccc(C[C@H](N)C(=O)O)cc1; 4Pal = N[C@@H](Cc1ccncc1)C(=O)O; Dab = NCC[C@H](N)C(=O)O; Dap = NC[C@H](N)C(=O)O; Aib = CC(C)(N)C(=O)O
target: T1, IL-1β (Homo sapiens, UniProt P01584); experiment: IL-6 assay in MRC5 cells: inhibition of IL-1β induced IL-6 secretion (AlphaLISA); type: cell-based; conditions: inhibition of IL-1β induced IL-6 secretion in MRC5 cells; read-out: MRC5 IC50
T1 construct: purchased BioLegend 579404
In short: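 Compound was pre-incubated 1 h at ambient temperature with recombinant human IL-1β at 2λ EC80 before adding human lung fibroblast MRC5 cells (3000/well) in EMEM with 0.025% BSA. After overnight culture at 37 °C, 5% CO2, secreted IL-6 in conditioned medium was measured by AlphaLISA; IC50 from 4-parameter logistic fits.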

T1 sequence (P01584 117-269): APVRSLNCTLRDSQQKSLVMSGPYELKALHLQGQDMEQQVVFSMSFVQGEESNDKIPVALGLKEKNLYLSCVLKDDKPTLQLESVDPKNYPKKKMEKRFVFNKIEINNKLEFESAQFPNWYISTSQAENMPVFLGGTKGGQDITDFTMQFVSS

`CC(=O)N1CCN(c2ccc(C[C@@H]3NC(=O)[C@H]4C[C@@H](Cc5ccc(F)cc5)CN4C(=O)CNC(=O)[C@H](CCN)NC(=O)[C@H](CCC(N)=O)NC(=O)[C@H](Cc4cncnc4)NC(=O)C(C)(C)NC(=O)[C@H](Cc4c[nH]c5ccccc45)NC(=O)[C@H](CCC(=O)O)NC(=O)C(C)(C)NC(=O)[C@H]([C@@H](C)c4c[nH]c5cccc(F)c45)NC(=O)[C@@H]4C[C@H](F)CN4C(=O)CNC(=O)[C@H](Cc4ccc(C(=O)O)cc4)NC(=O)[C@H](Cc4ccncc4)NC3=O)cn2)CC1` [Example 39] (cyclo([X37][4Pal][Phe(4-COOH)]G[Pro(cis-4-F)][Trp(βS-Me,4-F)][Aib]EW[Aib][Ala(pyrimidin-5-yl)]Q[Dab]G[dPro(4R-Bzl(4-F))])) and `CC(=O)N1CCN(c2ncc(C[C@@H]3NC(=O)[C@H]4C[C@@H](Cc5ccc(F)cc5)CN4C(=O)CNC(=O)[C@H](CCN)NC(=O)[C@H](CCC(N)=O)NC(=O)[C@H](Cc4cncnc4)NC(=O)C(C)(C)NC(=O)[C@H](Cc4c[nH]c5ccccc45)NC(=O)[C@H](CCC(=O)O)NC(=O)C(C)(C)NC(=O)[C@H]([C@@H](C)c4c[nH]c5cccc(F)c45)NC(=O)[C@@H]4C[C@H](F)CN4C(=O)CNC(=O)[C@H](Cc4ccc(C(=O)O)cc4)NC(=O)[C@H](Cc4ccncc4)NC3=O)cn2)CC1` [Example 40] (cyclo([X28][4Pal][Phe(4-COOH)]G[Pro(cis-4-F)][Trp(βS-Me,4-F)][Aib]EW[Aib][Ala(pyrimidin-5-yl)]Q[Dab]G[dPro(4R-Bzl(4-F))])) are within 0.2 log units of each other in pIC50: 10.20 for the first, 10.32 for the second.

`C[C@@H]1NC(=O)C(C)(C)NC(=O)[C@H]([C@@H](C)c2c[nH]c3cccc(F)c23)NC(=O)[C@@H]2C[C@H](F)CN2C(=O)CNC(=O)[C@H](Cc2ccc(C(=O)O)cc2)NC(=O)[C@H](Cc2ccncc2)NC(=O)[C@H](Cc2ccc(-c3ccc(C(=O)O)cc3)cc2)NC(=O)[C@H]2C[C@@H](Cc3ccncc3)CN2C(=O)CNC(=O)[C@H](CCN)NC(=O)[C@H](CCC(N)=O)NC(=O)[C@H](Cc2cncnc2)NC(=O)C(C)(C)NC(=O)[C@H](Cc2c[nH]c3ccccc23)NC1=O` [Example 41] (cyclo([4Pal][Phe(4-COOH)]G[Pro(cis-4-F)][Trp(βS-Me,4-F)][Aib]AW[Aib][Ala(pyrimidin-5-yl)]Q[Dab]G[dPro(4R-(4-pyridylmethyl))][Bip(4'-COOH)])) and `C[C@@H](c1c[nH]c2cccc(F)c12)[C@@H]1NC(=O)[C@@H]2C[C@H](F)CN2C(=O)CNC(=O)[C@H](Cc2ccc(C(=O)O)cc2)NC(=O)[C@H](Cc2ccncc2)NC(=O)[C@H](Cc2ccc(-c3ccc(C(=O)O)cc3)cc2)NC(=O)[C@H]2C[C@@H](Cc3ccncc3)CN2C(=O)CNC(=O)[C@H](CCN)NC(=O)[C@H](CCC(N)=O)NC(=O)[C@H](Cc2cncnc2)NC(=O)C(C)(C)NC(=O)[C@H](Cc2c[nH]c3ccccc23)NC(=O)[C@H](CO)NC(=O)C(C)(C)NC1=O` [Example 42] (cyclo([4Pal][Phe(4-COOH)]G[Pro(cis-4-F)][Trp(βS-Me,4-F)][Aib]SW[Aib][Ala(pyrimidin-5-yl)]Q[Dab]G[dPro(4R-(4-pyridylmethyl))][Bip(4'-COOH)])) are within 0.2 log units of each other in pIC50: 10.54 for the first, 10.68 for the second.

`C[C@@H](c1c[nH]c2cccc(F)c12)[C@@H]1NC(=O)[C@@H]2C[C@H](F)CN2C(=O)CNC(=O)[C@H](Cc2ccc(C(=O)O)cc2)NC(=O)[C@H](CC23CC(C2)C3)NC(=O)[C@H](Cc2ccc(-c3ccc(C(=O)O)cc3)cc2)NC(=O)[C@H]2C[C@@H](Cc3ccncc3)CN2C(=O)CNC(=O)[C@H](CCN)NC(=O)[C@H](CCC(N)=O)NC(=O)[C@H](Cc2cncnc2)NC(=O)C(C)(C)NC(=O)[C@H](Cc2c[nH]c3ccccc23)NC(=O)[C@H](CCC(=O)O)NC(=O)C(C)(C)NC1=O` [Example 43] (cyclo([Bip(4'-COOH)][Ala(1-bicyclo(1.1.1)pentyl)][Phe(4-COOH)]G[Pro(cis-4-F)][Trp(βS-Me,4-F)][Aib]EW[Aib][Ala(pyrimidin-5-yl)]Q[Dab]G[dPro(4R-(4-pyridylmethyl))])) and `C[C@@H](c1c[nH]c2cccc(F)c12)[C@@H]1NC(=O)[C@@H]2C[C@H](F)CN2C(=O)CNC(=O)[C@H](Cc2ccc(C(=O)O)cc2)NC(=O)[C@H](CC23CC(C2)C3)NC(=O)[C@H](Cc2ccc(-c3ccc(C(=O)O)cc3)cc2)NC(=O)[C@H]2C[C@@H](Cc3ccncc3)CN2C(=O)CNC(=O)[C@H](CN)NC(=O)[C@H](CCC(N)=O)NC(=O)[C@H](Cc2cncnc2)NC(=O)C(C)(C)NC(=O)[C@H](Cc2c[nH]c3ccccc23)NC(=O)[C@H](CCC(=O)O)NC(=O)C(C)(C)NC1=O` [Example 46] (cyclo([Bip(4'-COOH)][Ala(1-bicyclo(1.1.1)pentyl)][Phe(4-COOH)]G[Pro(cis-4-F)][Trp(βS-Me,4-F)][Aib]EW[Aib][Ala(pyrimidin-5-yl)]Q[Dap]G[dPro(4R-(4-pyridylmethyl))])) are within 0.2 log units of each other in pIC50: 10.59 for the first, 10.47 for the second.

`C[C@@H](c1c[nH]c2cccc(F)c12)[C@@H]1NC(=O)[C@@H]2C[C@H](F)CN2C(=O)CNC(=O)[C@H](Cc2ccc(C(=O)O)cc2)NC(=O)[C@H](CC23CC(C2)C3)NC(=O)[C@H](Cc2ccc(-c3ccc(C(=O)O)cc3)cc2)NC(=O)[C@H]2C[C@@H](Cc3ccncc3)CN2C(=O)CNC(=O)[C@H](CCN)NC(=O)[C@H](CCC(N)=O)NC(=O)[C@H](Cc2cncnc2)NC(=O)C(C)(C)NC(=O)[C@H](Cc2c[nH]c3ccccc23)NC(=O)[C@H](CO)NC(=O)C(C)(C)NC1=O` [Example 44] (cyclo([Aib]SW[Aib][Ala(pyrimidin-5-yl)]Q[Dab]G[dPro(4R-(4-pyridylmethyl))][Bip(4'-COOH)][Ala(1-bicyclo(1.1.1)pentyl)][Phe(4-COOH)]G[Pro(cis-4-F)][Trp(βS-Me,4-F)])) and `C[C@@H](c1c[nH]c2cccc(F)c12)[C@@H]1NC(=O)[C@@H]2C[C@H](F)CN2C(=O)CNC(=O)[C@H](Cc2ccc(C(=O)O)cc2)NC(=O)[C@H](CC23CC(C2)C3)NC(=O)[C@H](Cc2ccc(-c3ccc(C(=O)O)cc3)cc2)NC(=O)[C@H]2C[C@@H](Cc3ccncc3)CN2C(=O)CNC(=O)[C@H](CCN)NC(=O)[C@H](CCC(N)=O)NC(=O)[C@H](Cc2ccncc2)NC(=O)C(C)(C)NC(=O)[C@H](Cc2c[nH]c3ccccc23)NC(=O)[C@H](CCC(=O)O)NC(=O)C(C)(C)NC1=O` [Example 45] (cyclo([Bip(4'-COOH)][Ala(1-bicyclo(1.1.1)pentyl)][Phe(4-COOH)]G[Pro(cis-4-F)][Trp(βS-Me,4-F)][Aib]EW[Aib][4Pal]Q[Dab]G[dPro(4R-(4-pyridylmethyl))])) are within 0.2 log units of each other in pIC50: 10.68 for the first, 10.57 for the second.

`C[C@@H](c1c[nH]c2cccc(F)c12)[C@@H]1NC(=O)[C@@H]2C[C@H](F)CN2C(=O)CNC(=O)[C@H](Cc2ccc(C(=O)O)cc2)NC(=O)[C@H](Cc2ccncc2)NC(=O)[C@H](Cc2ccc(-c3ccc(C(=O)O)cc3)cc2)NC(=O)[C@H]2C[C@@H](Cc3ccncc3)CN2C(=O)CNC(=O)[C@H](CN)NC(=O)[C@H](CCC(N)=O)NC(=O)[C@H](Cc2ccncc2)NC(=O)C(C)(C)NC(=O)[C@H](Cc2c[nH]c3ccccc23)NC(=O)[C@H](CCC(=O)O)NC(=O)C(C)(C)NC1=O` [Example 47] (cyclo([Bip(4'-COOH)][4Pal][Phe(4-COOH)]G[Pro(cis-4-F)][Trp(βS-Me,4-F)][Aib]EW[Aib][4Pal]Q[Dap]G[dPro(4R-(4-pyridylmethyl))])) and `C[C@@H](c1c[nH]c2cccc(F)c12)[C@@H]1NC(=O)[C@@H]2C[C@H](F)CN2C(=O)CNC(=O)[C@H](Cc2ccc(C(=O)O)cc2)NC(=O)[C@H](CC23CC(C2)C3)NC(=O)[C@H](Cc2ccc(-c3ccc(C(=O)O)cc3)cc2)NC(=O)[C@H]2C[C@@H](Cc3ccncc3)CN2C(=O)CNC(=O)[C@H](CN)NC(=O)[C@H](CCC(N)=O)NC(=O)[C@H](Cc2ccncc2)NC(=O)C(C)(C)NC(=O)[C@H](Cc2c[nH]c3ccccc23)NC(=O)[C@H](CCC(=O)O)NC(=O)C(C)(C)NC1=O` [Example 48] (cyclo([4Pal]Q[Dap]G[dPro(4R-(4-pyridylmethyl))][Bip(4'-COOH)][Ala(1-bicyclo(1.1.1)pentyl)][Phe(4-COOH)]G[Pro(cis-4-F)][Trp(βS-Me,4-F)][Aib]EW[Aib])) are within 0.2 log units of each other in pIC50: 10.54 for the first, 10.57 for the second.

`CC(=O)NCCOc1ccc(C[C@@H]2NC(=O)[C@H]3C[C@@H](Cc4ccncc4)CN3C(=O)CNC(=O)[C@H](CCN)NC(=O)[C@H](CCC(N)=O)NC(=O)[C@H](Cc3cncnc3)NC(=O)C(C)(C)NC(=O)[C@H](Cc3c[nH]c4ccccc34)NC(=O)[C@H](CCC(=O)O)NC(=O)C(C)(C)NC(=O)[C@H]([C@@H](C)c3c[nH]c4cccc(F)c34)NC(=O)[C@@H]3C[C@H](F)CN3C(=O)CNC(=O)[C@H](Cc3ccc(C(=O)O)cc3)NC(=O)[C@H](Cc3ccncc3)NC2=O)cc1` [Example 49] (cyclo([AEF](Ac)[4Pal][Phe(4-COOH)]G[Pro(cis-4-F)][Trp(βS-Me,4-F)][Aib]EW[Aib][Ala(pyrimidin-5-yl)]Q[Dab]G[dPro(4R-(4-pyridylmethyl))])) and `CC(=O)NCCOc1ccc(C[C@@H]2NC(=O)[C@H]3C[C@@H](Cc4ccncc4)CN3C(=O)CNC(=O)[C@H](CCN)NC(=O)[C@H](CCC(N)=O)NC(=O)[C@H](Cc3cncnc3)NC(=O)C(C)(C)NC(=O)[C@H](Cc3c[nH]c4ccccc34)NC(=O)[C@H](CCC(=O)O)NC(=O)C(C)(C)NC(=O)[C@H]([C@@H](C)c3c[nH]c4cccc(F)c34)NC(=O)[C@@H]3C[C@H](F)CN3C(=O)CNC(=O)[C@H](Cc3ccc(C(=O)O)cc3)NC(=O)[C@H](CC34CC(C3)C4)NC2=O)cc1` [Example 50] (cyclo([AEF](Ac)[Ala(1-bicyclo(1.1.1)pentyl)][Phe(4-COOH)]G[Pro(cis-4-F)][Trp(βS-Me,4-F)][Aib]EW[Aib][Ala(pyrimidin-5-yl)]Q[Dab]G[dPro(4R-(4-pyridylmethyl))])) are within 0.2 log units of each other in pIC50: 10.33 for the first, 10.36 for the second.
